We go through three compounds from patent US20250188080A1, “IMIDAZOLONYLQUINOLINE COMPOUNDS AND THERAPEUTIC USES THEREOF” (Merck Patent GmbH, priority 2019, published 2025).

Data set [1] is described as follows: Microsomal stability (intrinsic clearance), human. Format: in vitro ADME. The note with it: for microsomal CLint: liver microsomes, pH 7.4. Also noted: microsomal CLint: dose or concentration left out as unconfirmed. From the text:
(§1) A microsomal stability assay is used to measure in vitro clearance (Clint). The assay involves measuring the rate of disappearance of a compound due to its intrinsic attitude to be metabolized (“intrinsic” meaning that the disappearance is not affected by other properties like permeability, binding etc. that play a role when quantifying in vivo clearance). The microsomal stability (intrinsic clearance, Clint) and, thus, metabolic stability is generally given as μl/min/mg protein. It can be visualized as the volume of solution that 1 mg of microsomes is able to clear of the compound in one minute.
(§2) A Tecan Genesis workstation (RSP 150/8) was used for to perform the microsomal incubations. Analysis was carried out using a Waters ACQUITY UPLC system coupled to an ABSciex API3000 mass spectrometer. Data analysis was performed using Assay Explorer (Symyx).
(§3) • Potassium phosphate buffer: 0.05 M potassium phosphate buffer pH 7.4 containing 1 mM MgCl2 • NADPH (nicotinamide adenine dinucleotide phosphate): 22.5 mg NADPH-Na4 in 1.8 ml potassium phosphate buffer • Acetonitrile: 50 Vol % acetonitrile (1 volume acetonitrile, 1 volume water) • DMSO: 20 Vol % DMSO in water • Stock solution of 20 mg/ml human or mouse liver microsomes (protein)/ml in phosphate buffer • Stock solution of 10 mM compound in 100% DMSO
(§4) Dilution of test compounds was done in 2 steps starting from a 10 mM stock solution of the respective compound in 100% DMSO. First 4 μl stock solution was added to 196 μl of 20 Vol % DMSO. In a second step, 10 μl of the first dilution were added to 1590 μl potassium phosphate buffer to achieve a final concentration of 1.25 μM in the final compound dilution. Thus, the amount of organic solvent in the assay was kept to a minimum (<1%).
(§5) The human or mouse liver microsome (protein) solution to be used in the assay was prepared by mixing 750 μl stock solution (20 mg/ml) and 2250 μl potassium phosphate buffer to a final concentration of 5 mg/ml.
(§6) Incubation was carried out on a 96 deep well incubation plate. […]

The nature of data set [2]: Microsomal stability (intrinsic clearance), mouse. Type of data set: in vitro ADME. Also noted: microsomal CLint: dose or concentration left out as unconfirmed. To be noted: for CLint (mouse): mouse microsomes.
Text: as §1, §2, §3, §4, §5, §6

The next data set has as its target DNA-PK protein complex (Homo sapiens, UniProt P78527). Nature of the data set: DNA-PK assay (HTRF). Type of data set: biochemical. How it is done:
The kinase assay was performed as HTRF® based 384-well assay. In a first step DNA-PK protein complex was incubated with or without test compound for 15 min at 22° C. After addition of the STK-substrate 1-biotin (Cisbio), Mg-ATP, DNA and staurosporine the reaction mixture was incubated for 60-80 min (depending on activity of DNA-PK protein complex) at 22° C. An Echo 555 (Labcyte) was used for dispensing of compound solutions. The assay buffer consisted of 25 mM HEPES PH 7.4, 11 mM MgCl2, 80 mM KCl, 0.45 mM EDTA, and 0.5 mM EGTA, and contained 1 mM dithiothreitol (DTT), 0.17% BSA, and 0.01% Tween® 20. The pharmacologically relevant volume was 5 μl. The final concentrations in the assay during incubation of the reaction mixture were 50-100 ng/well DNA-PK protein complex (depending on activity of DNA-PK protein complex), 1 μM STK-substrate 1-biotin, 10 μM Mg-ATP, 80 ng/well DNA from calf thymus, and 1 μM staurosporine. The enzymatic reaction was stopped by addition of EDTA. The generation of phosphorylated STK-substrate 1-biotin as result of the DNA-PK mediated reaction was detected via a specific anti-phospho STK-antibody (Cisbio) labeled with Europium (Eu) as donor and streptavidin labeled with XL665 (Cisbio) as acceptor allowing FRET. For this purpose, 4 μl of antibody- and streptavidin-containing stop solution (12.5 mM HEPES pH 8.0, 125 mM EDTA, 30 mM sodium chloride, 300 mM potassium fluoride, 0.006% Tween-20, 0.005% Brij® 35, 0.179 nM anti-phospho-STK antibody, 160 nM Streptavidin-XL665) were added to the reaction mixture. Following signal development for 1 h the plates were analyzed on a Rubystar or Pherastar microplate reader (BMG Labtech). The amount of phosphorylated substrate was directly proportional to the ratio of fluorescence units (excitation wavelength 337 nm) at the emission wavelengths 665 nm (Phosphopeptide-sensitive wavelength/emission of XL665) to the units at 620 nm (reference wavelength Europium). IC50-values were calculated using Genedata Screener® software. […]

Compound `COc1cc2ncc3c(c2cc1-c1cn(C)nc1C)n(-c1c(F)cncc1OC)c(=O)n3C` (single isomer, unassigned) [Compound 1, 8-(1,3-Dimethyl-1H-pyrazol-4-yl)-1-(Sa)-(3-fluoro-5-methoxy-pyridin-4-yl)-7-methoxy-3-methyl-1,3-dihydro-imidazo[4,5-c]quinolin-2-one] came in with a microsomal CLint in data set [1] of less than 10 µL/min/mg. Also, the “CLint (mouse)” value in data set [2] is 22 μl/min/mg protein. The compound further returned an IC50 against DNA-PK protein complex of 0.6 µM.
With `COc1cc2ncc3c(c2cc1-c1cn(C)nc1C)n(-c1c(F)cncc1OC)c(=O)n3C` (single isomer, unassigned) [Compound 2, 8-(1,3-Dimethyl-1H-pyrazol-4-yl)-1-(Ra)-(3-fluoro-5-methoxy-pyridin-4-yl)-7-methoxy-3-methyl-1,3-dihydro-imidazo[4,5-c]quinolin-2-one], in data set [1] (human microsomes), the “CLint (human)” value is given as less than 10 μl/min/mg protein. Moreover, in data set [2], the “CLint (mouse)” value was determined as 103 μl/min/mg protein. At DNA-PK protein complex, this compound registered an IC50 of 1.29 µM.
As to `COc1cc2ncc3c(c2cc1-c1cn(C)nc1C)n(-c1c(F)cncc1OC)c(=O)n3C` [Compound Y, 8-(1,3-dimethyl-1H-pyrazol-4-yl)-1-(3-fluoro-5-methoxypyridin-4-yl)-7-methoxy-3-methyl-1,3-dihydroimidazo[4,5-c]quinolin-2-one, reference compound], the microsomal CLint is 19 µL/min/mg in data set [1] and 61 µL/min/mg in data set [2] (mouse, liver microsomes, pH 7.4, mouse microsomes). Further, the IC50 on DNA-PK protein complex worked out at 0.98 µM.
